Experimental findings from patent US20200215082A1, “Dihydrotestosterone and Dihydrotestosterone Derivatives and Promoters in the Treatment of Cancer” (Tyme, Inc., priority 2016, published 2020) are described below.

This experiment deals with cancerous tumor of the distal radius. Nature of the experiment: Treatment of a canine with a cancerous tumor of the distal radius (X-ray). The class given is in vivo. The settings on record: after stanozolol administration, FIG. 1 before, FIG. 2 after, dose and route not given. As to the method:
FIG. 1 is an X-ray depicting a cancerous tumor on the distal radius of a canine.
FIG. 2 is an X-ray depicting calcification of the cancerous tumor shown in FIG. 1 after treatment according to a preferred aspect of the disclosure.
A canine presenting with a cancerous tumor of the distal radius (see FIG. 1) was administered stanozolol.

In the case of stanozolol, the “calcification of the cancerous tumor” value is “the cancerous tumor calcified”.
